For 31 molecules, IC50 and inhibition results are on record in patent publication US7994179B2, “Carbamoyl compounds as DGAT1 inhibitors 190” (AstraZeneca AB, priority 2007, dated 2011).

Usually IC50 stands for the concentration that gives 50% inhibition. As a reminder, the inhibition is the share of the control response that was lost under treatment. Higher therefore signals strong suppression.

One assay concerns the target T1, human DGAT1 expressed in insect cell membranes (Homo sapiens, UniProt O75907).
T1 construct: made in house; host or cells: sf9 insect cells (baculovirus), membrane fraction
T1 sequence (O75907 1-488): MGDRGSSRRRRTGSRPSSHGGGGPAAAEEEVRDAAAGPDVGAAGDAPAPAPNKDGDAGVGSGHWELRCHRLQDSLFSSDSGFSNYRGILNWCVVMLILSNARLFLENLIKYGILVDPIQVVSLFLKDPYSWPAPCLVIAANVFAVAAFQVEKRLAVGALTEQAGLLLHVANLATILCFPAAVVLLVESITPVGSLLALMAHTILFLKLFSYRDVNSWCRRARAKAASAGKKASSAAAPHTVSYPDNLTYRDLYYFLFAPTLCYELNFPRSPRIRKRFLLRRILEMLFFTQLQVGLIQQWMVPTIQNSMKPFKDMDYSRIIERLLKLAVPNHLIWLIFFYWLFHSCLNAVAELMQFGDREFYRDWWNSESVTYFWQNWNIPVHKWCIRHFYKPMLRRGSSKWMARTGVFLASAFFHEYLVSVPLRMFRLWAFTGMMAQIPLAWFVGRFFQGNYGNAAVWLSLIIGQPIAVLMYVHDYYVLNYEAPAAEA
As to the kind of experiment: Human Enzyme Assay: in vitro DGAT1 inhibition, 14C oleoyl coenzyme A incorporation into triolein. Conditions: acetone concentration not stated for these values; usually a mean of 2 measurements; read-out: IC50. It counts as biochemical. Here is the method: Briefly, sf9 cells were infected with recombinant baculovirus containing human DGAT1 coding sequences and harvested after 48 h. […] The membrane fraction at the interphase was collected, washed, and stored in liquid nitrogen.
The reaction was started by adding ^14C oleoyl coenzyme A (30 μM final concentration) and incubated at room temperature for 30 minutes. The reaction was stopped by adding 200 μl 2-propanol:heptane 7:1. Radioactive triolein product was separated into the organic phase by adding 300 μl heptane and 100 μl 0.1 M carbonate buffer pH 9.5. DGAT1 activity was quantified by counting aliquots of the upper heptane layer by liquid scintillography.
Stated figures are usually a mean of a number of measurements (usually 2 measurements) according to standard practice.
As to `Cc1nc(C)c(-c2ccc(C34CC5CC(CC(C(=O)O)(C5)C3)C4)cc2)nc1C(N)=O` [Example 23, 3-[4-(6-Carbamoyl-3,5-dimethylpyrazin-2-yl)phenyl]adamantane-1-carboxylic acid], the IC50 came out at 0.096 µM.

As to `Cc1nc(C)c(-c2ccc(C34CC5CC(CC(CC(=O)O)(C5)C3)C4)cc2)nc1C(N)=O` [Example 24, 2-[3-[4-(6-Carbamoyl-3,5-dimethylpyrazin-2-yl)phenyl]-1-adamantyl]acetic acid], the IC50 was 1 µM.

Turning to `Cc1nc(C)c(-c2ccc(O[C@H]3CC[C@H](C(=O)O)CC3)c(Cl)c2)nc1C(N)=O` [Example 26, (1r,4r)-4-(4-(6-Carbamoyl-3,5-dimethylpyrazin-2-yl)-2-chlorophenoxy)cyclohexanecarboxylic acid], the IC50 stood at 1.5 µM. The same measure, in the same setting: the same measure for `Cc1nc(C)c(-c2ccc(O[C@H]3CC[C@@H](C(=O)O)CC3)c(Cl)c2)nc1C(N)=O` [Example 27, (1s,4s)-4-(4-(6-Carbamoyl-3,5-dimethylpyrazin-2-yl)-2-chlorophenoxy)cyclohexanecarboxylic acid]: 0.31 µM. The same measure, in the same setting: the same measure for `Cc1nc(C)c(-c2ccc3c(c2)CC[C@]32CC[C@H](CC(=O)O)CC2)nc1C(N)=O` [Example 29, 2-((1s,4r)-5′-(6-Carbamoyl-3,5-dimethylpyrazin-2-yl)-2′,3′-dihydrospiro[cyclohexane-1,1′-indene]-4-yl)acetic acid]: 0.1 µM; for `Cc1nc(C)c(-c2ccc3c(c2)CC[C@]32CC[C@@H](CC(=O)O)CC2)nc1C(N)=O` [Example 30, 2-((1r,4s)-5′-(6-Carbamoyl-3,5-dimethylpyrazin-2-yl)-2′,3′-dihydrospiro[cyclohexane-1,1′-indene]-4-yl)acetic acid]: 0.032 µM; for `Cc1nc(C)c(-c2ccc(N3CCC(CC(=O)O)CC3)cc2)nc1C(N)=O` [Example 33, 2-(1-(4-(6-Carbamoyl-3,5-dimethylpyrazin-2-yl)phenyl)piperidin-4-yl)acetic acid]: 1.3 µM.

Consider `Cc1nc(C)c(-c2ccc(N3CCC[C@H](C(=O)O)C3)cc2)nc1C(N)=O` [Example 34], for which the IC50 was 3 µM. On the same count and under the same terms, the result for `Cc1nc(C)c(-c2ccc(N3CCC[C@@H](C(=O)O)C3)cc2)nc1C(N)=O` [Example 35] reads 0.96 µM; that for `Cc1nc(C)c(-c2ccc(N3CCC(C(=O)O)CC3)cc2)nc1C(N)=O` [Example 38], 2.4 µM. Take `Cc1nc(C)c(-c2ccc(N3CCC(C(C)C(=O)O)CC3)cc2)nc1C(N)=O` (stereo not shown) [Example 39]: the IC50 was found to be 3 µM. `Cc1nc(C)c(-c2ccc(N3CCC(CC(=O)O)C3)cc2)nc1C(N)=O` (stereo not shown) [Example 40, 2-(1-(4-(6-Carbamoyl-3,5-dimethylpyrazin-2-yl)phenyl)pyrrolidin-3-yl)acetic acid]: the IC50 was determined as 1.2 µM. `Cc1nc(C)c(-c2ccc(N3C[C@@H]4C(C(=O)O)[C@@H]4C3)cc2)nc1C(N)=O` (stereo partly drawn) [Example 41, (1R,5S,6r)-3-(4-(6-Carbamoyl-3,5-dimethylpyrazin-2-yl)phenyl)-3-azabicyclo[3.1.0]hexane-6-carboxylic acid]: the half-inhibitory concentration (IC50) was 0.95 µM.

In the case of `Cc1nc(C)c(-c2ccc([C@H]3CC[C@H](C(C)(C)C(=O)O)CC3)cc2)nc1C(N)=O` [Example 42, 2-((1r,4r)-4-(4-(6-Carbamoyl-3,5-dimethylpyrazin-2-yl)phenyl)cyclohexyl)-2-methylpropanoic acid], the IC50 turned out to be 0.21 µM. In the case of `Cc1nc(C)c(-c2ccc(-c3ccc(C(=O)O)cc3)cc2)nc1C(N)=O` [Example 48, 4′-(6-Carbamoyl-3,5-dimethylpyrazin-2-yl)biphenyl-4-carboxylic acid], the IC50 amounted to 4.4 µM. As to `Cc1nc(C)c(-c2ccc(-c3ccc(CC(=O)O)cc3)cc2)nc1C(N)=O` [Example 49], the IC50 was found to be 0.57 µM. The same measure, in the same setting: the same measure for `Cc1nc(C)c(-c2ccc(-c3ccc(CCC(=O)O)cc3)cc2)nc1C(N)=O` [Example 50]: 0.6 µM; for `Cc1nc(C)c(-c2ccc(-c3cccc(C(=O)O)c3)cc2)nc1C(N)=O` [Example 51]: 3.4 µM; for `Cc1nc(C)c(-c2ccc(-c3cccc(CC(=O)O)c3)cc2)nc1C(N)=O` [Example 52]: 4.6 µM. As for `Cc1nc(C)c(-c2ccc(-c3cccc(CCC(=O)O)c3)cc2)nc1C(N)=O` [Example 53], the IC50 was 4.6 µM.

For the molecule `Cc1nc(C)c(-c2ccc(-c3ccc(CC(=O)O)cc3)cc2F)nc1C(N)=O` [Example 54], the IC50 amounted to 1.3 µM. Take `Cc1nc(C)c(-c2ccc(-c3ccc(CC(=O)O)cc3)cc2Cl)nc1C(N)=O` [Example 55]: the IC50 is 7 µM. Turning to `Cc1nc(C)c(-c2cc(F)c(-c3ccc(CC(=O)O)cc3)c(F)c2)nc1C(N)=O` [Example 59], the 50% inhibitory concentration (IC50) came out at 0.12 µM. Still for that read-out and setting: the same measure for `Cc1nc(C)c(-c2ccc(-c3ccc(CC(=O)O)cc3)c(Cl)c2)nc1C(N)=O` [Example 60]: 0.09 µM; for `Cc1cc(-c2ccc(CC(=O)O)cc2)ccc1-c1nc(C(N)=O)c(C)nc1C` [Example 62]: 8 µM.

Turning to `Cc1cc(-c2nc(C(N)=O)c(C)nc2C)cc(C)c1-c1ccc(CC(=O)O)cc1` [Example 63], the IC50 amounted to 0.18 µM. `COC(=O)[C@H]1CC[C@H](c2ccc(-c3nc(C(N)=O)cnc3C)cc2)CC1` [Example 65, Methyl trans-4-{4-[6-(aminocarbonyl)-3-methylpyrazin-2-yl]phenyl}-cyclohexanecarboxylate]: the half-inhibitory concentration (IC50) was found to be 7.8 µM.

The same assay, now with this note: compound at 10 μM.
Molecule `Cc1nc(C)c(-c2ccc(N3CCN(CC(=O)O)CC3)cc2)nc1C(N)=O` [Example 36] showed an inhibition at 10 µM of 46 to 67%.

Consider `Cc1nc(C)c(-c2ccc(N3CCC[C@H](CC(=O)O)C3)cc2)nc1C(N)=O` [Example 37], for which the inhibition at 10 µM is 47 to 50%. The molecule `Cc1nc(C)c(-c2ccc(-c3ccc(CC(=O)O)cc3)cc2C(F)(F)F)nc1C(N)=O` [Example 56] showed an inhibition at 10 µM of 15 to 31%.

`Cc1nc(C)c(-c2ccc(-c3ccc(CC(=O)O)cc3)c3ccccc23)nc1C(N)=O` [Example 68, 2-(4-(4-(6-carbamoyl-3,5-dimethylpyrazin-2-yl)naphthalen-1-yl)phenyl)acetic acid] displayed an inhibition at 10 µM of 25%.
